Measured values taken from patent US20070197562A1, “Remedies for prostatic hypertrophy” (Yokohama TLO Company, Ltd., priority 2004, published 2007).

Legend:
Assay type in all cases: cell-based, human
PrSC cells = experiment: IL-6 secretion by PrSC cells (CLEIA); conditions: 24 hours
Method: PrSC cells prepared in the same manner as Example 1, or F-1 or FT-FB cells prepared as described above were placed in a 6-well dish at 10^5 cells per well, cultured at 5% CO2 and 37° C. for 1 day (24 hours), and stimulated by the addition of TGFβ (1 ng/mL), TNFα (1 ng/mL), EGF (2.5 or 10 ng/mL), or angiotensin II (1 μM or 10 μM) (n=3). CV was added as the AIIR blocker to some wells 4 hours before adding the reagents. The culture media were collected 24 hours after adding the reagents, and the concentrations of IL-6 were determined by the CLEIA method.

[1] = test system: MAPK phosphorylation in PC-3 cells; experiment: MAPK phosphorylation in PC-3 cells cultured in PrSC conditioned media (Western blotting); conditions: 10% FCS-CM from PrSC with AIIR blocker 10 μM, no angiotensin II; lanes 5 and 6 vs lane 4; 10 minutes
Method: Stromal cells (PrSC) were cultured in a phenol red-free F12 medium containing 0.1% (W/V) BSA, to which angiotensin II (10 μM) was added alone or in combination with losartan (“Los”; 10 μM). The culture medium was collected 24 hours after the addition, and used as a conditioned medium (“0.1% BSA-CM”).
Stromal cells (PrSC) were cultured in a phenol red-free F12 medium containing 10% (V/V) FCS, to which CV (10 μM) or losartan (10 μM) was added. The culture medium was collected 24 hours after the addition, and used as a conditioned medium (“10% FCS-CM”) with no addition of angiotensin II. 10% FCS-CM with no additive was also prepared in the same manner.
3,000,000 PrSC cells were used for each of the above 10-1 and 10-2
PC3 cells (prostate cancer cells) were cultured for 24 hours in a phenol red-free F12 medium supplemented with 0.1% (W/V) BSA. Then the medium was replaced with one of the conditioned media prepared as described above, and the cells were collected 10 minutes later. Total cellular proteins were extracted as described below. Similar protocol was done in parallel for PC-3 cells without using any conditioned medium (“Control”).
The cells were washed twice with an ice-cold phosphate buffer (PBS), and lysed in 200 μL of an ice-cold cell lysis solution (lysis buffer; 20 mM of Tris (pH8.0), 137 mM of NaCl, 10% of glycerol, 0.1% of SDS, 0.5% of Nonidet P-40 (trade name), 100 mM of sodium fluoride, […] of sodium orthovanadate, 1 mM of EGTA, 2 mM of phenylmethylsulfonyl fluoride, […] of leupeptin, and […] of aprotinin). The mixture was centrifuged. Subsequently, the supernatant was collected.
The resulting protein sample was subjected to SDS-PAGE in the routine manner, and the MAPK phosphorylation was determined by Western blotting using an anti-phospho-MAP kinase antibody or an anti-MAP kinase antibody) (both were purchased from Cell Signaling Technology (Beverly, Mass.)) as the detecting antibody.
From the obtained results, the expression levels of pMAPK and MAPK bands were determined using NIH image software. On the basis of the results, the pMAPK/MAPK ratio in each lane was calculated, and then the ratio (“pMAPK ratio”) of the obtained value of each lane to that of the lane 1 (“Control”) was calculated by taking the value of Control as 1.

[2] = test system: MAPK phosphorylation in PrSC cells; experiment: MAPK phosphorylation in PrSC cells (Western blotting)
Method: Stromal cells (PrSC) were cultured for 24 hours in a phenol red-free F12 medium containing 0.1% (W/V) BSA, to which angiotensin II (10 μM) or TNFα (1 ng/mL) was added each alone or in combination with either CV (10 μM) or losartan (“Los”; 10 μM) by replacing the medium. The cells were collected 10 minutes after the addition, and the total cellular proteins were extracted in the same manner as described in Example 10. Similarly, the cells cultured with no additive and the cells added with either CV or Los alone were processed in parallel. 3,000,000 PrSC cells were used for each sample.
These samples were subjected to Western blotting in the same manner as described in Example 10.

## CCOc1nc2cccc(C(=O)OC(C)OC(=O)OC3CCCCC3)c2n1Cc1ccc(-c2ccccc2-c2nnn[nH]2)cc1 (stereo not shown) [CV, 1-(cyclohexyloxycarbonyloxy)ethyl 2-ethoxy-1-[[2′-(1H-tetrazole-5-yl)biphenyl-4-yl]methyl]-1H-benzimidazole-7-carboxylate]
PrSC cells; EGF (10 ng/mL)+CV (10 μM), P<0.05 vs EGF
  IL-6 secretion: significantly suppressed
PrSC cells; TGFβ (1 ng/mL)+CV 10 μM, P<0.04 vs TGFβ
  IL-6 secretion: significantly suppressed
PrSC cells; TNFα (1 ng/mL)+CV 10 μM, P<0.01 vs TNFα
  IL-6 secretion: significantly suppressed
[1]
  MAPK phosphorylation in PC-3 cells: suppressed
[2]; AIIR blocker 10 μM added alone, lanes 8 and 9
  MAPK phosphorylation in PrSC cells: not caused
[2]; TNFα (1 ng/mL) in combination with AIIR blocker 10 μM, lanes 6 and 7, 10 minutes
  MAPK phosphorylation in PrSC cells: suppressed
[2]; angiotensin II (10 μM) in combination with AIIR blocker 10 μM, lanes 3 and 4, 10 minutes
  MAPK phosphorylation in PrSC cells: suppressed
